Measured values from US10793557B2, “Sting agonist compounds” (Merck Sharp & Dohme Corp., priority 2018, dated 2020).

Experiments:
[1] = target: T1, full-length WT STING (Homo sapiens, UniProt Q86WV6, H232R); test: 3H-cGAMP filtration binding assay (WT STING); settings: for EC50: competition with tritiated cGAMP, WT STING membrane
T1 construct: AviTag (after gg linker) (C); HRV3C cleavage site (after gs linker) (C); HIS8 (C); made in house; host or cells: Trichoplusia ni (Hi-Five) insect cells infected with baculovirus (virus generated and amplified in Sf21 cells); used as a washed membrane preparation
Outline: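 EC50 values come from 4-parameter fits of remaining filter-bound tritium versus log concentration (10-point, 1:3 dilution). Insect-cell membranes carrying full-length WT STING were incubated 60 min at RT with compound and tritiated cGAMP (16 nM working stock) before filtration.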

[2] = target: T2, full-length HAQ STING (Homo sapiens, UniProt Q86WV6, G230A/H232R/R293Q/R71H); test: 3H-cGAMP filtration binding assay (HAQ STING); settings: competition with tritiated cGAMP, HAQ STING membrane
T2 construct: AviTag (after GG linker) (C); HRV3C cleavage site (after GS linker) (C); HIS8 (C); made in house; host or cells: Trichoplusia ni (Hi-Five) insect cells infected with baculovirus (virus generated and amplified in Sf21 cells); used as a washed membrane preparation
Outline: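 Hi-Five (T. ni) membranes overexpressing the STING variant (2.2 ug/ml working) preincubated with compound 60 min at RT in PBS, then [3H]cGAMP (8 nM working stock) added for 60 min at RT. Bound radioactivity captured on GF/B filters and counted by scintillation; EC50 from 4-parameter fit of control-normalized activity.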

[3] = tested on: secretion of interferon-beta from THP1 cells; test: IFN-β secretion in THP1 cell culture (5 h); assay type: cell-based; settings: Homo sapiens, THP-1, 5 h, 30 uM cGAMP = 100%; for activation at 30 µM: compound at 30 μM, read-out: % Effect at 30 μM relative to 2′3′-cGAMP; for activation at 3 µM: compound at 3 uM, read-out: % Effect relative to 2′3′-cGAMP (@ 3 uM)
Outline: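 IFN-β in supernatant measured by AlphaLISA after a 5 h, 37 °C incubation of THP1 cells with compound (10 concentrations, 30000 down to 1.5 nM, 0.3% DMSO) in low-serum RPMI. Values scaled between DMSO and 30 uM cGAMP controls; 4-parameter curve fit yields EC50.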

T1 sequence (Q86WV6 with tags, fused parts or gaps H232R): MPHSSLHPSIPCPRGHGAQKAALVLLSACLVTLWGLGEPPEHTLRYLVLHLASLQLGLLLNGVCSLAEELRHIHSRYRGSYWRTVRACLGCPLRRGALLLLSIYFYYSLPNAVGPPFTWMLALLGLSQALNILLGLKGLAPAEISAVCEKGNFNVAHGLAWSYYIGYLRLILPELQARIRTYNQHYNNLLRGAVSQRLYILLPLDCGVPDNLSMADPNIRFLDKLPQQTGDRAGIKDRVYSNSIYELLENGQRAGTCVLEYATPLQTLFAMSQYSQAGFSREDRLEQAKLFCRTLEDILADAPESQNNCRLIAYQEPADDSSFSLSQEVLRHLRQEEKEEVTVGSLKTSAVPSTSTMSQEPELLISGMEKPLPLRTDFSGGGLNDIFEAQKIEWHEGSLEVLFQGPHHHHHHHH
T2 sequence (Q86WV6 with tags, fused parts or gaps R71H/G230A/H232R/R293Q): as the sequence (Q86WV6 with tags, fused parts or gaps H232R) above, with R71H, G230A, R293Q counted along it

| Compound | EC50 [1] [nM] | EC50 [2] [nM] | activation at 30 µM [3] [%] | activation at 3 µM [3] [%] | inhibition at 20 µM ([1]; at 20,000 nM compound) [%] | inhibition at 2 µM ([1]; at 2,000 nM compound) [%] |
| --- | --- | --- | --- | --- | --- | --- |
| COc1cc2cc(C(=O)C[C@H](C)C(=O)O)sc2cc1OCCCOc1c(OC)cc2sc(C(=O)[C@@H]3CC[C@H]3C(=O)O)cc2c1F [Example 171, trans-2-(5-(3-((2-((S)-3-carboxybutanoyl)-5-methoxybenzo[b]thiophen-6-yl)oxy)propoxy)-4-fluoro-6-methoxybenzo[b]thiophene-2-carbonyl)cyclobutanecarboxylic acid] | 59 | 9 | 97 |  |  |  |
| COc1cc2sc(C(=O)C[C@H](C)C(=O)O)cc2c(Cl)c1OCCCCOc1c(OC)cc2sc(C(=O)C[C@H](C)C(=O)O)cc2c1Cl [Example 172, (2S,2′S)-4,4′-(5,5′-(butane-1,4-diylbis(oxy))bis(4-chloro-6-methoxybenzo[b]thiophene-5,2-diyl))bis(2-methyl-4-oxobutanoic acid)] | 15100 | 454 |  | 16 |  |  |
| COc1cc2sc(C(=O)CCC(=O)O)cc2nc1CCCOc1c(OC)cc2sc(C(=O)CCC(=O)O)cc2c1F [Example 173] | 3 | 1 | 127 |  |  |  |
| COc1cc2sc(C(=O)CCC(=O)O)cc2nc1CCCOc1c(OC)cc2sc(C(=O)C[C@H](C)C(=O)O)cc2c1F [Example 174, (S)-4-(5-(3-(2-(3-carboxypropanoyl)-6-methoxythieno[3,2-b]pyridin-5-yl)propoxy)-4-fluoro-6-methoxybenzo[b]thiophen-2-yl)-2-methyl-4-oxobutanoic acid] | 1 | 1 | 88 |  |  |  |
| COc1cc2sc(C(=O)CCC#N)cc2cc1CCCc1cc2cc(C(=O)CCC#N)sc2cc1OC [Example 175, 4,4′-(Propane-1,3-diylbis(6-methoxybenzo[b]thiophene-5,2-diyl))bis(4-oxobutanenitrile)] |  | 4020 | 13 |  | 46 |  |
| COc1cc2sc(C(=O)C[C@H](C)C(=O)O)cc2cc1NCCCOc1c(OC)cc2sc(C(=O)C[C@H](C)C(=O)O)cc2c1F [Example 176, (S)-4-(5-((3-((2-((S)-3-Carboxybutanoyl)-4-fluoro-6-methoxybenzo [b]thiophen-5-yl)oxy)propyl)amino)-6-methoxybenzo[b]thiophen-2-yl)-2-methyl-4-oxobutanoic acid] | 2 | 1 | 44 |  |  |  |
| COc1cc2sc(C(=O)CCC(=O)O)cc2cc1CCCNc1cc2cc(C(=O)C[C@H](C)C(=O)O)sc2cc1OC [Example 177, (S)-4-(5-((3-(2-(3-carboxypropanoyl)-6-methoxybenzo[b]thiophen-5-yl)propyl)amino)-6-methoxybenzo[b]thiophen-2-yl)-2-methyl-4-oxobutanoic acid] | 720 | 68 | 80 |  |  |  |
| COc1cc2sc(C(=O)C[C@H](C)C(=O)O)cc2cc1OCCCOc1c(OC)cc2sc(C(=O)C[C@H](C)C(=O)NS(=O)(=O)N(C)C)cc2c1F [Example 178, (S)-4-(5-(3-((2-((S)-4-((N,N-Dimethylsulfamoyl)amino)-3-methyl-4-oxobutanoyl)-4-fluoro-6-methoxybenzo[b]thiophen-5-yl)oxy)propoxy)-6-methoxybenzo[b]thiophen-2-yl)-2-methyl-4-oxobutanoic acid] | 31 | 4 | 107 |  |  |  |
| COc1cc2sc(C(=O)C[C@H](C)C(=O)O)cc2cc1OCCCOc1c(OC)cc2sc(C(=O)C[C@H](C)C(=O)NS(C)(=O)=O)cc2c1F [Example 179, (S)-4-(5-(3-((4-fluoro-6-methoxy-2-((S)-3-methyl-4-(methylsulfonamido)-4-oxobutanoyl)-benzo[b]thiophen-5-yl)oxy)propoxy)-6-methoxybenzo[b]thiophen-2-yl)-2-methyl-4-oxobutanoic acid] | 1 | 1 | 79 |  |  |  |
| COc1cc2sc(C(=O)C[C@H](C)C(=O)O)cc2c(F)c1OCCCOc1cc2cc(C(=O)C[C@H](C)C(=O)O)sc2cc1O [Example 180, (S)-4-(5-(3-((2-((S)-3-Carboxybutanoyl)-4-fluoro-6-methoxybenzo[b]thiophen-5-yl)oxy)propoxy)-6-hydroxybenzo [b]thiophen-2-yl)-2-methyl-4-oxobutanoic acid] | 1 | 1 |  | 121 |  |  |
| COc1cc2sc(CC[C@H](C)C(=O)O)cc2c(F)c1OCCCOc1cc2cc(C(=O)C[C@H](C)C(=O)O)sc2cc1O [Example 181, (S)-4-(5-(3-((2-((S)-3-carboxybutyl)-4-fluoro-6-methoxybenzo[b]thiophen-5-yl)oxy)propoxy)-6-hydroxybenzo[b]thiophen-2-yl)-2-methyl-4-oxobutanoic acid] | 177 | 5 |  | 104 |  |  |
| COc1cc2sc(C(=O)C[C@H](C)C(=O)O)cc2c(Cl)c1OCCCOc1cc2cc(C(=O)C[C@H](C)C(=O)O)sc2cc1O [Example 182, (S)-4-(5-(3-((2-((S)-3-carboxybutanoyl)-4-chloro-6-methoxybenzo[b]thiophen-5-yl)oxy)propoxy)-6-hydroxybenzo[b]thiophen-2-yl)-2-methyl-4-oxobutanoic acid] | 2 | 1 |  | 147 |  |  |
| COc1cc2sc(C(=O)C[C@H](C)C(=O)O)cc2cc1OCCCOc1c(O)cc2sc(C(=O)C[C@H](C)C(=O)O)cc2c1Cl [Example 183, (S)-4-(5-(3-((2-((S)-3-carboxybutanoyl)-4-chloro-6-hydroxybenzo[b]thiophen-5-yl)oxy)propoxy)-6-methoxybenzo[b]thiophen-2-yl)-2-methyl-4-oxobutanoic acid] | 3 | 1 |  | 127 |  |  |
| COc1cc2sc(CC[C@H](C)C(=O)O)cc2cc1OCCCOc1c(O)cc2sc(C(=O)C[C@H](C)C(=O)O)cc2c1Cl [Example 184, (S)-4-(5-(3-((2-((S)-3-carboxybutyl)-6-methoxybenzo[b]thiophen-5-yl)oxy)propoxy)-4-chloro-6-hydroxybenzo[b]thiophen-2-yl)-2-methyl-4-oxobutanoic acid] |  | 353 |  | 10 |  | 29 |
| COc1cc2sc(C(=O)C[C@H](C)C(=O)O)cc2c(F)c1OCCCOc1c(O)cc2sc(C(=O)C[C@H](C)C(=O)O)cc2c1Cl [Example 185, (S)-4-(5-(3-((2-((S)-3-carboxybutanoyl)-4-chloro-6-hydroxybenzo[b]thiophen-5-yl)oxy)propoxy)-4-fluoro-6-methoxybenzo[b]thiophen-2-yl)-2-methyl-4-oxobutanoic acid] | 1 | 1 |  | 122 |  |  |
| COc1cc2sc(CC[C@H](C)C(=O)O)cc2c(F)c1OCCCOc1c(O)cc2sc(C(=O)C[C@H](C)C(=O)O)cc2c1Cl [Example 186, (S)-4-(5-(3-((2-((S)-3-carboxybutyl)-4-fluoro-6-methoxybenzo[b]thiophen-5-yl)oxy)propoxy)-4-chloro-6-hydroxybenzo[b]thiophen-2-yl)-2-methyl-4-oxobutanoic acid] | 756 | 133 |  | 56 |  |  |
| COc1cc2sc(C(=O)C[C@H](C)C(=O)O)cc2c(Cl)c1OCCCOc1c(O)cc2sc(C(=O)C[C@H](C)C(=O)O)cc2c1Cl [Example 187, (S)-4-(5-(3-((2-((S)-3-carboxybutanoyl)-4-chloro-6-hydroxybenzo[b]thiophen-5-yl)oxy)propoxy)-4-chloro-6-methoxybenzo[b]thiophen-2-yl)-2-methyl-4-oxobutanoic acid] | 46 | 4 |  | 128 |  |  |
| COc1cc2sc(C(=O)C[C@H](C)C(=O)O)cc2c(F)c1OCCCOc1c(O)cc2sc(C(=O)C[C@H](C)C(=O)O)cc2c1F [Example 188, (S)-4-(5-(3-((2-((S)-3-carboxybutanoyl)-4-fluoro-6-hydroxybenzo[b]thiophen-5-yl)oxy)propoxy)-4-fluoro-6-methoxybenzo[b]thiophen-2-yl)-2-methyl-4-oxobutanoic acid] | 1 | 1 |  | 104 |  |  |
| COc1cc2sc(C(=O)C[C@H](C)C(=O)O)cc2cc1OCCCOc1c(O)cc2sc(C(=O)C[C@H](C)C(=O)O)cc2c1F [Example 189, (S)-4-(5-(3-((2-((S)-3-carboxybutanoyl)-4-fluoro-6-hydroxybenzo[b]thiophen-5-yl)oxy)propoxy)-6-methoxybenzo[b]thiophen-2-yl)-2-methyl-4-oxobutanoic acid] | 2 | 1 |  | 111 |  |  |
